Measurements: PubChem BioAssay (NCI)
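Briefly, cells in 96-well plates were exposed to five compound concentrations for 48 h, and endpoints were estimated by linear interpolation. Here, GI50 denotes the concentration required for 50% inhibition of growth. The concentration for full growth arrest is given as TGI.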

Experiments:
Assay in all cases: NCI tumour cell line growth inhibition, 48 h
RXF 393 renal = test system: RXF 393 renal
SK-MEL-2 melanoma = test system: SK-MEL-2 melanoma
ACHN renal = test system: ACHN renal
LOX IMVI melanoma = test system: LOX IMVI melanoma
HOP-92 NSCLC = test system: HOP-92 NSCLC
TK-10 renal = test system: TK-10 renal
OVCAR-4 ovarian = test system: OVCAR-4 ovarian
NCI-H460 lung = test system: NCI-H460 lung
SK-OV-3 ovarian = test system: SK-OV-3 ovarian
NCI-H23 lung = test system: NCI-H23 lung

SMILES	GI50 (RXF 393 renal) [µM]	TGI (RXF 393 renal) [µM]	GI50 (SK-MEL-2 melanoma) [µM]	TGI (SK-MEL-2 melanoma) [µM]	GI50 (ACHN renal) [µM]	TGI (ACHN renal) [µM]	GI50 (LOX IMVI melanoma) [µM]	TGI (LOX IMVI melanoma) [µM]	GI50 (HOP-92 NSCLC) [µM]	TGI (HOP-92 NSCLC) [µM]	GI50 (TK-10 renal) [µM]	TGI (TK-10 renal) [µM]	GI50 (OVCAR-4 ovarian) [µM]	TGI (OVCAR-4 ovarian) [µM]	GI50 (NCI-H460 lung) [µM]	TGI (NCI-H460 lung) [µM]	GI50 (SK-OV-3 ovarian) [µM]	TGI (SK-OV-3 ovarian) [µM]	GI50 (NCI-H23 lung) [µM]	TGI (NCI-H23 lung) [µM]
COc1cc[nH]c1/C=C1\C(=O)Nc2ccc(F)c(C#C[C@@H](O)[C@@H](N)[C@@H](C)O)c21	0.279	0.955	0.39	0.923	0.323	2.94	0.516	2.5	0.517	1.96	0.258	1.86	0.671	6.85	0.515	2.77	0.744	9.65	0.649	3.33
CCOC(=O)C1C=C2O[C@@H]3OC4(CCCCC4)O[C@@H]3C2[C@H]2C(=O)C=CC(=O)[C@@]12C(=O)OC (stereo not given in full)		3.59		30.6		32.2		32.9		26.2		26.5		23.3		33.4		32.2		45.2
C[C@@H](c1ccc2nccn2c1)n1nnc2ncc(-c3cnn(C)c3)nc21	> 100	> 100	> 100	> 100	> 100	> 100	> 100	> 100	58	> 100	> 100	> 100	65.1	> 100	> 100	> 100	> 100	> 100	> 100	> 100
O=C(Nc1ccncc1)C(=O)c1cn(S(=O)(=O)c2ccc(Br)cc2)c2ccccc12	7.28	> 100	32	> 100	9.13	> 100	7.49	> 100	2.14	22.4	15.1	> 100	15.1	> 100	11.3	> 100	19.9	> 100	4.74	> 100
NNC(=O)/C(=C/c1cccc([N+](=O)[O-])c1)NC(=O)c1ccccc1		> 100		> 100		> 100		> 100		> 100		> 100		> 100		> 100		> 100		> 100
Cn1nc(-c2ccccc2NC(=O)C(F)(F)F)c(=O)n(C)c1=S		> 100		60.7		77.5		> 100		50.7		> 100		62.3		64.1		> 100		80.8
N#C/C(=C\c1c(-c2ccccc2)[nH]c2ccccc12)C(=O)c1ccc(Cl)cc1	19.5	> 100	7.09	> 39.3	6.69	> 55	4.76	> 100	3.35	22.1	8.6	43.8	3.68	22.8	1.02	11.6	3.02	14.8	3.71	38.5
Nc1nc(N)[n+]([O-])c(N)c1NCO		> 100		> 100		> 100		> 100		> 100		> 100		> 100		> 100		> 100		> 100
COc1cc(C(=O)O)c([N+](=O)[O-])c(OC)c1OC		> 100		> 100		> 100		> 100		> 100		> 100		> 100		> 100		> 100		> 100
Cc1cc(NC(=O)C2c3ccccc3C(=O)N(CC(C)C)C2c2cccs2)no1 (stereo not given)	27.5	> 100	> 100	> 100	55.2	> 100	> 100	> 100	18.7	78.2	> 100	> 100	31.3	> 100	> 100	> 100	> 100	> 100	> 100	> 100
O=C1c2ccccc2-c2c1c1ccccc1c(=O)n2CCO		> 100		87.2		10.4		> 100		> 71.6		> 100		> 100		11.3		> 100		> 61.9
C=C(c1ccccc1N)[C@@]1(O)C[C@H](/C(=C\C)CO)C[C@@H]1NCc1ccccc1		49.3		39.2		> 100		31.6		27.5		44.1		> 100		42.8		73.7		> 100
CC(Cl)(/C=C/Cl)C(Cl)/C=C/C(Cl)(CCl)CBr (stereo not given)		2.92		19.8		18.1		4.5		4.01		20.5		9.36		15.4		30.9		7.16
